Earlier results, collected in PubChem BioAssay AID1259409 (Chemical Carcinogenesis Research Information System (CCRIS), 2018).

System: rodent chemically induced tumor inhibition, incidence and multiplicity
Assay: CCRIS tumor inhibitor studies

## CC1=C(/C=C/C(C)=C/C=C/C(C)=C/C(=O)NCC(O)CO)C(C)(C)CCC1 (configuration not stated)
Carcinogen: N-BUTYL-N-(4-HYDROXYBUTYL)NITROSAMINE, 3817-11-6, Dose [Inhibitor]: 1.5 MMOL/KG/D IN DIET FOR 108 D STARTING 1 WK POST CARCINOGEN TREATMENT (STUDY DURATION: 171 D), Route [Inhibitor]: ORAL, Species: MOUSE, Strain/Sex: BDF/MALE, Target Tissue: Type of Lesion: URINARY BLADDER: TRANSITIONAL CELL CARCINOMA, Dose [Carcinogen]: 5 MG 2/WK FOR 9 WK, Promoter: NONE USED
  tumour outcome (control, treated, inhibition, significance): 31/55 (56%), 25/54 (46%), 18%, not significant
Carcinogen: N-NITROSOBIS(2-OXOPROPYL)AMINE, 60599-38-4, Dose [Inhibitor]: 0.25 MMOL/KG OF DIET FOR 184 D STARTING 2 WK AFTER LAST CARCINOGEN DOSE WITH 4 INTERMITTENT 1 WK REST PERIODS OF VEHICLE, Route [Inhibitor]: ORAL, Species: HAMSTER, Strain/Sex: SYRIAN/FEMALE, Target Tissue: Type of Lesion: PANCREAS: CARCINOMA, Dose [Carcinogen]: 20 MG/KG INJECTION GIVEN TWICE 1 WK APART, Promoter: NONE USED
  tumour outcome (control, treated, inhibition, significance): 38%, 35%, 8%, not calculated
Carcinogen: N-NITROSOBIS(2-OXOPROPYL)AMINE, 60599-38-4, Dose [Inhibitor]: 0.25 MMOL/KG OF DIET FOR 184 D STARTING 2 WK AFTER LAST CARCINOGEN DOSE WITH 4 INTERMITTENT 1 WK REST PERIODS OF VEHICLE, Route [Inhibitor]: ORAL, Species: HAMSTER, Strain/Sex: SYRIAN/MALE, Target Tissue: Type of Lesion: PANCREAS: CARCINOMA, Dose [Carcinogen]: 20 MG/KG INJECTION GIVEN TWICE 1 WK APART, Promoter: NONE USED
  tumour outcome (control, treated, inhibition, significance): 34%, 43%, -26%, not calculated
Carcinogen: N-NITROSOBIS(2-OXOPROPYL)AMINE, 60599-38-4, Dose [Inhibitor]: 0.25 MMOL/KG OF DIET FOR 350 D STARTING 2 WK AFTER LAST CARCINOGEN DOSE AND INTERRUPTED TWICE BY 1 WK REST PERIODS OF VE, Route [Inhibitor]: ORAL, Species: HAMSTER, Strain/Sex: SYRIAN/FEMALE, Target Tissue: Type of Lesion: LIVER: HEPATOCELLULAR CARCINOMA, Dose [Carcinogen]: 20 MG/KG INJECTION GIVEN TWICE 1 WK APART, Promoter: NONE USED
  tumour outcome (control, treated, inhibition, significance): 5%, 28%, -460%, not calculated
Carcinogen: N-NITROSOBIS(2-OXOPROPYL)AMINE, 60599-38-4, Dose [Inhibitor]: 0.25 MMOL/KG OF DIET FOR 350 D STARTING 2 WK AFTER LAST CARCINOGEN DOSE AND INTERRUPTED TWICE BY 1 WK REST PERIODS OF VE, Route [Inhibitor]: ORAL, Species: HAMSTER, Strain/Sex: SYRIAN/MALE, Target Tissue: Type of Lesion: LIVER: HEPATOCELLULAR CARCINOMA, Dose [Carcinogen]: 20 MG/KG INJECTION GIVEN TWICE 1 WK APART, Promoter: NONE USED
  tumour outcome (control, treated, inhibition, significance): 7%, 14%, -100%, not calculated
Carcinogen: N-NITROSOBIS(2-OXOPROPYL)AMINE, 60599-38-4, Dose [Inhibitor]: 0.5 MMOL/KG OF DIET FOR 153 D STARTING 2 WK AFTER LAST CARCINOGEN DOSE WITH 4 INTERMITTENT 1 WK REST PERIODS OF VEHICLE-, Route [Inhibitor]: ORAL, Species: HAMSTER, Strain/Sex: SYRIAN/FEMALE, Target Tissue: Type of Lesion: LIVER: HEPATOCELLULAR CARCINOMA, Dose [Carcinogen]: 20 MG/KG INJECTION GIVEN TWICE 1 WK APART, Promoter: NONE USED
  tumour outcome (control, treated, inhibition, significance): 5%, 0%, 100%, not calculated
Carcinogen: N-NITROSOBIS(2-OXOPROPYL)AMINE, 60599-38-4, Dose [Inhibitor]: 0.5 MMOL/KG OF DIET FOR 153 D STARTING 2 WK AFTER LAST CARCINOGEN DOSE WITH 4 INTERMITTENT 1 WK REST PERIODS OF VEHICLE-, Route [Inhibitor]: ORAL, Species: HAMSTER, Strain/Sex: SYRIAN/FEMALE, Target Tissue: Type of Lesion: PANCREAS: NEOPLASM, Dose [Carcinogen]: 20 MG/KG INJECTION GIVEN TWICE 1 WK, Promoter: NONE USED
  tumour outcome (control, treated, inhibition, significance): 38%, 21%, 45%, not calculated
Carcinogen: N-NITROSOBIS(2-OXOPROPYL)AMINE, 60599-38-4, Dose [Inhibitor]: 0.5 MMOL/KG OF DIET FOR 153 D STARTING 2 WK AFTER LAST CARCINOGEN DOSE WITH 4 INTERMITTENT 1 WK REST PERIODS OF VEHICLE-, Route [Inhibitor]: ORAL, Species: HAMSTER, Strain/Sex: SYRIAN/MALE, Target Tissue: Type of Lesion: PANCREAS: CARCINOMA, Dose [Carcinogen]: 20 MG/KG INJECTION GIVEN TWICE 1 WK APART, Promoter: NONE USED
  tumour outcome (control, treated, inhibition, significance): 34%, 36%, -6%, not calculated

## Cc1cc(=O)cc(C)o1
Carcinogen: BENZO[A]PYRENE, 50-32-8, Dose [Inhibitor]: 0.034 MMOL/G IN DIET FOR 5 WK (STUDY DURATION: 21 WK), Route [Inhibitor]: ORAL, Species: MOUSE, Strain/Sex: ICR/FEMALE, Target Tissue: Type of Lesion: FORESTOMACH: TUMOR, Dose [Carcinogen]: 1 MG IN 0.2 ML CORN OIL 2/WK FOR 4 WK STARTING ON D 8 OF EXPERIMENT, Promoter: NONE USED
  tumour outcome (control, treated, inhibition, significance): 94%, 100%, -6%, not significant

## C/C=C/C1=CC2=C(CO1)C(=O)[C@]1(C)OC(=O)[C@H](C(=O)CCCCC)[C@H]1C2
Carcinogen: PEROXYNITRITE [19059-14-4], Dose [Inhibitor]: 0.0025% FOR 2 WKS BEFORE PROMOTER (STUDY DURATION: 20 WK), Route [Inhibitor]: DRINKING WATER, Species: MOUSE, Strain/Sex: SENCAR/FEMALE (15,?)/(15,?), Target Tissue: Type of Lesion: SKIN: PAPILLOMA, Dose [Carcinogen]: 390 NM IN 0.1 ML 1 MM NAOH ONCE 1 WK AFTER INHIBITOR, Promoter: 12-O-TETRADECANOYLPHORBOL-13-ACETATE [16561-29-8]
  tumour outcome (control, treated, inhibition, significance): 100%, 80%, 20%, not significant
Carcinogen: UVB IRRADIATION, Dose [Inhibitor]: 0.0025% IN DRINKING WATER FOR 2 WKS BEGINNING WHILE MICE RECEIVED UVB (STUDY DURATION: 20 WK), Route [Inhibitor]: DRINKING WATER, Species: MOUSE, Strain/Sex: SENCAR/FEMALE (15,?)/(15,?), Target Tissue: Type of Lesion: SKIN: PAPILLOMA, Dose [Carcinogen]: 15 MIN EACH D FOR 3 D, Promoter: 12-O-TETRADECANOYLPHORBOL-13-ACETATE [16561-29-8]
  tumour outcome (control, treated, inhibition, significance): 100%, 53%, 47%, not significant

## O=C(O)c1ccc(-c2c3nc(c(-c4ccc(C(=O)O)cc4)c4ccc([nH]4)c(-c4ccc(C(=O)O)cc4)c4ccc([nH]4)c(-c4ccc(C(=O)O)cc4)c4nc2C=C4)C=C3)cc1
Carcinogen: 7,12-DIMETHYLBENZ[A]ANTHRACENE [57-97-6], Dose [Inhibitor]: 0, 0.1% IN 0.2 ML DMSO-ACETONE (15:85, V/V) 2X/WK FOR 30 WK 10 MIN PRIOR TO PROMOTER DOSE (STUDY DURATION: 31 WK), Route [Inhibitor]: DERMAL, Species: MOUSE, Strain/Sex: ICR/FEMALE, Target Tissue: Type of Lesion: SKIN: PAPILLOMA, Dose [Carcinogen]: 0.2 UMOL ONCE (STUDY DURATION: 31 WK), Promoter: 12-O-TETRADECANOYLPHORBOL-13-ACETATE [16561-29-8]
  tumour outcome (control, treated, inhibition, significance): 100%, 73%, 27%, not calculated
